Converted amounts (≈) assume the structure as drawn. Read-outs that look alike come from different tables or passages of the source.
How the values were obtained:
[1] = test system: Staphylococcus aureus NCTC 10649; assay: Agar plate dilution MIC; type: cell-based
Description: (§1) 6-Deoxyerythromycins A, B and C and 6-deoxy-15-norerythromycin B were tested for antibacterial activity using a standard agar plate dilution method in brain heart infusion broth. Erythromycin A was utilized as a control.

[2] = test system: Escherichia coli JUHL; assay: Agar plate dilution MIC; type: cell-based
Description: as §1

[3] = test system: Staphylococcus aureus CMX 553; assay: Agar plate dilution MIC; type: cell-based
Description: as §1

[4] = test system: Eschericha coli SS; assay: Agar plate dilution MIC; type: cell-based; details: brain heart infusion broth
Description: as §1

[5] = test system: Staphylococcus aureus ATCC 6538P; assay: Agar plate dilution MIC; type: cell-based; details: ATCC6538P
Description: as §1

[6] = test system: Enterococcus faecium ATCC 8043; assay: Agar plate dilution MIC; type: cell-based
Description: as §1

[7] = test system: Streptococcus agalactiae CMX 508; assay: Agar plate dilution MIC; type: cell-based
Description: as §1

[8] = test system: Micrococcus luteus ATCC 9341; assay: Agar plate dilution MIC; type: cell-based
Description: as §1

[9] = test system: Staphylococcus epidermis 3519; assay: Agar plate dilution MIC; type: cell-based; details: brain heart infusion broth
Description: as §1

[10] = test system: Streptococcus pyogenes EES61; assay: Agar plate dilution MIC; type: cell-based
Description: as §1

[11] = physchem; details: citric acid solution, pH 2.2
Description: The relative acid stability of one of the compounds of the present invention was compared to that of erythromycin A. 11.8 mg of 6-deoxyerythromycin A was suspended in citric acid solution (pH 2.2) and allowed to remain at 37° C. for 8 hours. Aliquots were removed at 2, 5, 10, and 20 minutes and at 1, 2, 3, 4, 5, 6 and 8 hours. Degradation was quenced by adjusting each aliquot to pH 9.6 with 7.5 N NH4 OH, followed by extraction with methylene chloride.
10.5 mg of erythromycin A was identically suspended in critic acid solution (pH 2.0) and allowed to remain at 37° C. for 10 minutes. Aliquots were removed at 2, 5 and 10 minutes. Degradation was quenched by adjusting each aliquot to pH 9.6 with 7.5 N NH4 OH, followed by extraction with methylene chloride.

[12] = test system: Streptococcus pyogenes C203; assay: Acute mouse protection test; type: in vivo, female CF-1 mice; details: read-out: ED50 (Dose Providing 50% Survival)
Description: (§2) The in vivo activity of 6-deoxyerythromycin A was evaluated using the acute mouse protection test. Mouse mortality was used to calcualte an ED50 value, i.e., the dose of drug required to protect 50% of the test animals against death due to inoculum challenge.
(§3) The acute mouse protection test was conducted as described by Fernandes, et al. (Antimicrob. Agents Chemother. 29:201-208(1986)) on female CF-1 mice weighing 20-25 grams. The mice were injected intraperitoneally with bacterial suspensions at a concentration 100 times that producing an LD50 response. 6-Deoxyerythromycin A or erythromycin A were administered orally at 1 and 5 hours post-infection. The median effective doses for the cumulative mortalities on the sixth day after infection were calculated using a trimmed logit analysis (Hamilton, et. al., Environ Sci. Technol. 11:714-719 (1977)).

[13] = test system: Staphylococcus aureus 10649; assay: Acute mouse protection test; type: in vivo, female CF-1 mice; details: read-out: ED50 (Dose Providing 50% Survival)
Description: as §2, §3

[14] = test system: Streptococcus pneumoniae 6303; assay: Acute mouse protection test; type: in vivo, female CF-1 mice; details: read-out: ED50 (Dose Providing 50% Survival)
Description: as §2, §3

[15] = test system: murine infections of Staphylococci and Streptococci; assay: Acute mouse protection test, overall result; type: in vivo, female CF-1 mice; details: orally administered
Description: as §2, §3

[16] = NCTC10649, Table 5, brain heart infusion broth, read-out: MIC value
[17] = Table 5, brain heart infusion broth
[18] = CMX553, Table 5, brain heart infusion broth, read-out: MIC value
[19] = Table 5, brain heart infusion broth, read-out: MIC value
[20] = ATCC8043, Table 5, brain heart infusion broth, read-out: MIC value
[21] = CMX508, Table 5, brain heart infusion broth, read-out: MIC value
[22] = ATCC9341, Table 5, brain heart infusion broth, read-out: MIC value
[23] = Staphylococcus, 3519, Table 5, read-out: MIC value
[24] = EES61, Table 5, brain heart infusion broth, read-out: MIC value
[25] = NCTC10649, Table 4, brain heart infusion broth, read-out: MIC value
[26] = Table 4, brain heart infusion broth
[27] = CMX553, Table 4, brain heart infusion broth, read-out: MIC value
[28] = Table 4, brain heart infusion broth, read-out: MIC value
[29] = ATCC8043, Table 4, brain heart infusion broth, read-out: MIC value
[30] = CMX508, Table 4, brain heart infusion broth, read-out: MIC value
[31] = ATCC9341, Table 4, brain heart infusion broth, read-out: MIC value
[32] = Staphylococcus, 3519, Table 4, read-out: MIC value
[33] = EES61, Table 4, brain heart infusion broth, read-out: MIC value

CO[C@]1(C)C[C@H](O[C@H]2[C@H](C)[C@@H](O[C@@H]3O[C@H](C)C[C@H](N(C)C)[C@H]3O)[C@@H](C)C[C@@H](C)C(=O)[C@H](C)[C@@H](O)[C@@H](C)[C@@H](C)OC(=O)[C@@H]2C)O[C@@H](C)[C@@H]1O [6-Deoxy-15-norerythromycin B]
MIC [1, 16]: 2 µg/mL (≈ 2.91 µM) | MIC [2, 17]: > 128 µg/mL | MIC [3, 18]: 2 µg/mL (≈ 2.91 µM) | MIC ([4]; Table 5): 2 µg/mL (≈ 2.91 µM) | MIC [5, 19]: 2 µg/mL (≈ 2.91 µM) | MIC [6, 20]: 2 µg/mL (≈ 2.91 µM) | MIC [7, 21]: 0.5 µg/mL (≈ 0.727 µM) | MIC [8, 22]: 0.25 µg/mL (≈ 0.363 µM) | MIC [9, 23]: 2 µg/mL (≈ 2.91 µM) | MIC [10, 24]: 0.25 µg/mL (≈ 0.363 µM)

CC[C@H]1OC(=O)[C@H](C)[C@@H](O[C@H]2C[C@@](C)(O)[C@@H](O)[C@H](C)O2)[C@H](C)[C@@H](O[C@@H]2O[C@H](C)C[C@H](N(C)C)[C@H]2O)[C@@H](C)C[C@@H](C)C(=O)[C@H](C)[C@@H](O)[C@]1(C)O [6-Deoxyerythromycin C]
MIC [1, 25]: 2 µg/mL (≈ 2.84 µM) | MIC [2, 26]: > 128 µg/mL | MIC [3, 27]: 4 µg/mL (≈ 5.68 µM) | MIC ([4]; Table 4): 16 µg/mL (≈ 22.7 µM) | MIC [5, 28]: 2 µg/mL (≈ 2.84 µM) | MIC [6, 29]: 0.25 µg/mL (≈ 0.355 µM) | MIC [7, 30]: 0.25 µg/mL (≈ 0.355 µM) | MIC [8, 31]: 0.25 µg/mL (≈ 0.355 µM) | MIC [9, 32]: 4 µg/mL (≈ 5.68 µM) | MIC [10, 33]: 0.5 µg/mL (≈ 0.71 µM)

CC[C@H]1OC(=O)[C@H](C)[C@@H](O[C@H]2C[C@@](C)(OC)[C@@H](O)[C@H](C)O2)[C@H](C)[C@@H](O[C@@H]2O[C@H](C)C[C@H](N(C)C)[C@H]2O)[C@](C)(O)C[C@@H](C)C(=O)[C@H](C)[C@@H](O)[C@]1(C)O [Erythromycin A, reference compound]
remaining at 2 min [11]: < 10% | ED50 ([12]; C203, po, 144 h): 54.5 mg/kg | ED50 ([13]; Staphylococcus aureus, 10649, po, 144 h): 120 mg/kg | ED50 ([14]; Streptococcus pneumoniae, 6303, po, 144 h): 24.8 mg/kg | MIC ([1]; NCTC10649, read-out: MIC value, Table 4, brain heart infusion broth): 0.25 µg/mL (≈ 0.341 µM) | MIC ([1]; NCTC10649, read-out: MIC value, Table 5, brain heart infusion broth): 0.12 µg/mL (≈ 0.164 µM) | MIC [2, 26]: 64 µg/mL (≈ 87.2 µM) | MIC [2, 17]: 32 µg/mL (≈ 43.6 µM) | MIC ([3]; CMX553, read-out: MIC value, Table 4, brain heart infusion broth): 0.25 µg/mL (≈ 0.341 µM) | MIC ([3]; CMX553, read-out: MIC value, Table 5, brain heart infusion broth): 0.12 µg/mL (≈ 0.164 µM) | MIC ([4]; Table 4): 1 µg/mL (≈ 1.36 µM) | MIC value ([4]; Table 5): 1 µg/mL (≈ 1.36 µM) | MIC ([5]; read-out: MIC value, Table 4, brain heart infusion broth): 0.25 µg/mL (≈ 0.341 µM) | MIC ([5]; read-out: MIC value, Table 5, brain heart infusion broth): 0.12 µg/mL (≈ 0.164 µM) | MIC ([6]; ATCC8043, read-out: MIC value, Table 4, brain heart infusion broth): 0.12 µg/mL (≈ 0.164 µM) | MIC ([6]; ATCC8043, read-out: MIC value, Table 5, brain heart infusion broth): 0.06 µg/mL (≈ 0.0818 µM) | MIC ([7]; CMX508, read-out: MIC value, Table 4, brain heart infusion broth): 0.06 µg/mL (≈ 0.0818 µM) | MIC ([7]; CMX508, read-out: MIC value, Table 5, brain heart infusion broth): 0.03 µg/mL (≈ 0.0409 µM) | MIC ([8]; ATCC9341, read-out: MIC value, Table 4, brain heart infusion broth): 0.03 µg/mL (≈ 0.0409 µM) | MIC ([8]; ATCC9341, read-out: MIC value, Table 5, brain heart infusion broth): 0.015 µg/mL (≈ 0.0204 µM) | MIC ([9]; Staphylococcus, 3519, read-out: MIC value, Table 4): 0.5 µg/mL (≈ 0.681 µM) | MIC ([9]; Staphylococcus, 3519, read-out: MIC value, Table 5): 0.12 µg/mL (≈ 0.164 µM) | MIC ([10]; EES61, read-out: MIC value, Table 4, brain heart infusion broth): 0.03 µg/mL (≈ 0.0409 µM) | MIC ([10]; EES61, read-out: MIC value, Table 5, brain heart infusion broth): 0.015 µg/mL (≈ 0.0204 µM)

CC[C@H]1OC(=O)[C@H](C)[C@@H](O[C@H]2C[C@@](C)(OC)[C@@H](O)[C@H](C)O2)[C@H](C)[C@@H](O[C@@H]2O[C@H](C)C[C@H](N(C)C)[C@H]2O)[C@@H](C)C[C@@H](C)C(=O)[C@H](C)[C@@H](O)[C@H]1C [6-Deoxyerythromycin B]
MIC [1, 16]: 1 µg/mL (≈ 1.42 µM) | MIC [2, 17]: > 128 µg/mL | MIC [3, 18]: 1 µg/mL (≈ 1.42 µM) | MIC ([4]; Table 5): 4 µg/mL (≈ 5.7 µM) | MIC [5, 19]: 1 µg/mL (≈ 1.42 µM) | MIC [6, 20]: 0.5 µg/mL (≈ 0.712 µM) | MIC [7, 21]: 0.25 µg/mL (≈ 0.356 µM) | MIC [8, 22]: 0.12 µg/mL (≈ 0.171 µM) | MIC [9, 23]: 1 µg/mL (≈ 1.42 µM) | MIC [10, 24]: 0.12 µg/mL (≈ 0.171 µM)

CC[C@H]1OC(=O)[C@H](C)[C@@H](O[C@H]2C[C@@](C)(OC)[C@@H](O)[C@H](C)O2)[C@H](C)[C@@H](O[C@@H]2O[C@H](C)C[C@H](N(C)C)[C@H]2O)[C@@H](C)C[C@@H](C)C(=O)[C@H](C)[C@@H](O)[C@]1(C)O [6-Deoxyerythromycin A]
remaining at 4 h [11]: > 50% | remaining at 8 h [11]: ~40% | ED50 ([12]; C203, 144 h, oral, 1 and 5 hours post-infection, intraperitoneal inoculum 100 times LD50, mortality on sixth day): 32.4 mg/kg | ED50 ([13]; Staphylococcus aureus, 10649, 144 h, oral, 1 and 5 hours post-infection, intraperitoneal inoculum 100 times LD50, mortality on sixth day): 90.8 mg/kg | ED50 ([14]; Streptococcus pneumoniae, 6303, 144 h, oral, 1 and 5 hours post-infection, intraperitoneal inoculum 100 times LD50, mortality on sixth day): 24.9 mg/kg | MIC [1, 25]: 1 µg/mL (≈ 1.39 µM) | MIC [2, 26]: > 128 µg/mL | MIC [3, 27]: 0.5 µg/mL (≈ 0.696 µM) | MIC ([4]; Table 4): 2 µg/mL (≈ 2.79 µM) | MIC [5, 28]: 1 µg/mL (≈ 1.39 µM) | MIC [6, 29]: 0.25 µg/mL (≈ 0.348 µM) | MIC [7, 30]: 0.12 µg/mL (≈ 0.167 µM) | MIC [8, 31]: 0.06 µg/mL (≈ 0.0836 µM) | MIC [9, 32]: 1 µg/mL (≈ 1.39 µM) | MIC [10, 33]: 0.25 µg/mL (≈ 0.348 µM) | effectiveness compared with erythromycin A [15]: as effective as erythromycin A

CC[C@H]1OC(=O)[C@H](C)[C@@H](O[C@H]2C[C@@](C)(OC)[C@@H](O)[C@H](C)O2)[C@H](C)[C@@H](O[C@@H]2O[C@H](C)C[C@H](N(C)C)[C@H]2O)[C@](C)(O)C[C@@H](C)C(=O)[C@H](C)[C@@H](O)[C@H]1C [Erythromycin B, reference compound]
MIC [1, 16]: 0.25 µg/mL (≈ 0.348 µM) | MIC [2, 17]: 32 µg/mL (≈ 44.6 µM) | MIC [3, 18]: 0.25 µg/mL (≈ 0.348 µM) | MIC ([4]; Table 5): 2 µg/mL (≈ 2.79 µM) | MIC [5, 19]: 0.25 µg/mL (≈ 0.348 µM) | MIC [6, 20]: 0.12 µg/mL (≈ 0.167 µM) | MIC [7, 21]: 0.03 µg/mL (≈ 0.0418 µM) | MIC [8, 22]: 0.03 µg/mL (≈ 0.0418 µM) | MIC [9, 23]: 0.25 µg/mL (≈ 0.348 µM) | MIC [10, 24]: 0.03 µg/mL (≈ 0.0418 µM)
